Where two headings read alike, the source gives them in different places.
Key:
NCI-60 cell line panel = test: NCI-60 single-dose assay, whole panel; format: cell-based, human; settings: summary over the panel
Source text: (§1) We first evaluated the cytotoxic activity of tricyclic-pyrrole carboxamides 1–20 using the NCI-60 cell line panel, representing nine different human cancers: leukemia, melanoma, and cancers of the lung, colon, central nervous system (CNS), ovary, kidney, prostate, and breast (the one-dose graph for compounds 1–20 is reported in Supplementary Materials, Figures S43–S62). Compounds 1, 5, 10, 11, 17, and 20 satisfied pre-determined threshold inhibition criteria in a minimum number of cell lines; therefore, they were also tested in the full five-dose assay (Figures S63–S68 in the Supplementary Materials).

[1] = test system: ZIKV, strain Brazil/2016/INMI1; test: ZIKV viral yield reduction assay on Huh-7 cells; format: cell-based, Zika virus; settings: for EC50: Zika virus
Experimental: We developed a protocol to screen the potential antiviral activity of compounds 1–20 against ZIKV (strain Brazil) on Huh-7 cells, against an H1N1 IAV strain (PR/8/1934) on MDCK cells, and against SARS-CoV-2 (strain Milano) on Vero-TMPRSS. Each compound was tested in duplicate at concentrations of 50 μM, 5 μM, and 0.5 μM. Treatment was applied immediately after infection, and at 24–48 h post-infection, supernatants were collected to assess viral yield, determined as PFU/mL for ZIKV and SARS-CoV-2 or as TCID50/mL for IAV. The test allowed us to evaluate both the antiviral action and the cytotoxicity of each compound, comparing them with reference compounds, such as sofosbuvir for ZIKV and EIDD-1931 for IAV and SARS-CoV-2 (Supplementary Materials, Figures S87–S89).
Viral yield reduction assays for ZIKV and SARS-CoV-2 were performed as previously described by Plicanti. Briefly, 1 × 10^4 Huh-7 cells/well and 1.2 × 10^4 VERO TMPRSS cells/well were infected with ZIKV (MOI 1) or SARS-CoV-2 (MOI 0.05) in a primary 96-well plate for 2 h at 37 °C, 5% CO2. […] Supernatants were collected after 48 h (Huh-7) or 24 h (VERO TMPRSS), diluted 3-fold, and added onto VERO E6 or VERO TMPRSS monolayers, respectively. After 2 h at 37 °C, the inoculum was replaced with 0.75% carboxymethyl cellulose (Merck®, Darmstadt, Germany) in DMEM 2% FBS. After 48–72 h, cells were then fixed with 4% buffered formalin solution (Merck®, Darmstadt, Germany) and stained with 1% crystal violet (Merck®, Darmstadt, Germany). Titres and percentage of inhibition were calculated as follows:
PFU/mL = number of plaques*3^n/vol infection, where n is the dilution where plaques were counted:% inhibition = 100 × (1 − Titre-compound/Titre-untreated control) where Titre-compound and Titre-untreated control are the titres (PFU/mL) obtained on cells treated with compound or DMSO, respectively.
SI was obtained by dividing CC50 by EC50 for each drug/virus/cell line. Compounds with SI values ≥ 10 were active in vitro.

[2] = Cytotoxicity on uninfected Huh-7 cells (WST-8, crystal violet); settings: human, uninfected Huh-7 cells
Experimental: (§2) The toxicity of the compounds at the same concentration was tested on the same cells in parallel.
(§3) Cytotoxic effects were evaluated on uninfected cells using the WST-8 assay (Orangu, Cell Guidance Systems, Cambridge, UK) and the crystal violet assay [23]. […] Huh-7, MDCK, and Vero TMPRSS cells were seeded at 1 × 10^4, 1.5 × 10^4, and 1.2 × 10^4 cells/well, respectively, and incubated for 48 h (Huh-7 and MDCK) or 24 h (VERO TMPRSS), following conditions matching those of the corresponding antiviral assays in terms of timing and culture medium. At the end of incubation, the medium was replaced with a 10% WST-8 solution in DMEM and incubated for 1 h at 37 °C. Optical density (OD) was then measured at 450 nm using a Varioskan LUX plate reader (ThermoFisher Scientific, Milano, Italy). Subsequently, cells were fixed with 4% buffered formalin solution (Merck®, Darmstadt, Germany), stained with 1% crystal violet (Merck®, Darmstadt, Germany), and the dye was solubilized in 30% acetic acid for 30 min under shaking. OD was then measured at 595 nm as an additional readout of cell viability. The percentage of viability at each concentration was calculated using the formula:% viability = 100 × (ODcompound/ODuntreated control) where ODcompound and ODuntreated are the OD of the cells treated with compound or DMSO, respectively.
(§4) The CC50 value was determined by nonlinear regression analysis on GraphPad Prism 7 (San Diego, CA, USA).

in vitro [3] = settings: African green monkey
in vitro [4] = settings: dog
[5] = test system: MCF-7 (breast cancer cell line); test: NCI-60 single-dose assay; format: cell-based, human; settings: Homo sapiens, MCF7, read-out: growth inhibition (GI%) and cytotoxicity (negative values), MCF-7, 10^−5 M
Source text: as §1

[6] = test system: SARS-CoV-2 VR PV10734 (strain Milano); test: microbe, parasite or virus in culture; format: cell-based
[7] = test system: HCT-116 (colon cancer cell line); test: NCI-60 single-dose assay; format: cell-based, human; settings: Homo sapiens, HCT-116, read-out: growth inhibition (GI%) and cytotoxicity (negative values)
Source text: as §1

[8] = test system: K-562 (leukemia cell line); test: NCI-60 single-dose assay; format: cell-based; settings: Homo sapiens, K562, read-out: growth inhibition (GI%) and cytotoxicity (negative values)
Source text: as §1

[9] = test system: HL-60(TB) (leukemia cell line); test: NCI-60 single-dose assay; format: cell-based, human; settings: Homo sapiens, HL-60, read-out: growth inhibition (GI%) and cytotoxicity (negative values)
Source text: as §1

[10] = test system: RPMI-8226 (leukemia cell line); test: NCI-60 single-dose assay; format: cell-based, human; settings: Homo sapiens, RPMI-8226, read-out: growth inhibition (GI%) and cytotoxicity (negative values)
Source text: as §1

[11] = test system: COLO 205 (colon cancer cell line); test: NCI-60 single-dose assay; format: cell-based, human; settings: Homo sapiens, COLO 205, read-out: growth inhibition (GI%) and cytotoxicity (negative values)
Source text: as §1

[12] = test system: NCI-H460 (non-small cell lung cancer cell line); test: NCI-60 single-dose assay; format: cell-based, human; settings: Homo sapiens, NCI-H460, read-out: growth inhibition (GI%) and cytotoxicity (negative values)
Source text: as §1

[13] = test system: SW-620 (colon cancer cell line); test: NCI-60 single-dose assay; format: cell-based, human; settings: Homo sapiens, SW-620, read-out: growth inhibition (GI%) and cytotoxicity (negative values)
Source text: as §1

[14] = test system: SK-MEL-5 (melanoma cell line); test: NCI-60 single-dose assay; format: cell-based, human; settings: Homo sapiens, SK-MEL-5, read-out: growth inhibition (GI%) and cytotoxicity (negative values)
Source text: as §1

[15] = test system: KM12 (colon cancer cell line); test: NCI-60 single-dose assay; format: cell-based, human; settings: Homo sapiens, KM12, read-out: growth inhibition (GI%) and cytotoxicity (negative values)
Source text: as §1

[16] = test system: CCRF-CEM (leukemia cell line); test: NCI-60 single-dose assay; format: cell-based, human; settings: Homo sapiens, read-out: growth inhibition (GI%) and cytotoxicity (negative values)
Source text: as §1

[17] = test system: MOLT-4 (leukemia cell line); test: NCI-60 single-dose assay; format: cell-based, human; settings: Homo sapiens, MOLT-4, read-out: growth inhibition (GI%) and cytotoxicity (negative values)
Source text: as §1

SR (leukemia cell line) = test: NCI-60 single-dose assay; format: cell-based, human; settings: Homo sapiens, read-out: growth inhibition (GI%) and cytotoxicity (negative values)
Source text: as §1

[18] = test system: HT29 (colon cancer cell line); test: NCI-60 single-dose assay; format: cell-based, human; settings: Homo sapiens, HT-29, read-out: growth inhibition (GI%) and cytotoxicity (negative values)
Source text: as §1

[19] = test system: HCT-15 (colon cancer cell line); test: NCI-60 single-dose assay; format: cell-based, human; settings: Homo sapiens, HCT-15, read-out: growth inhibition (GI%) and cytotoxicity (negative values)
Source text: as §1

M14 (melanoma cell line) = test: NCI-60 single-dose assay; format: cell-based, human; settings: Homo sapiens, M14, read-out: growth inhibition (GI%) and cytotoxicity (negative values)
Source text: as §1

[20] = test system: HCC-2998 (colon cancer cell line); test: NCI-60 single-dose assay; format: cell-based, human; settings: Homo sapiens, HCC 2998, read-out: growth inhibition (GI%) and cytotoxicity (negative values)
Source text: as §1

[21] = test system: IAV strain A/PR/8/34 (H1N1)
MDCK cells = test: Cytotoxicity on uninfected MDCK cells (WST-8, crystal violet)
in vitro [22] = settings: human
Experimental: as §2, §3, §4

[23] = preliminary screening (50, 5, 0.5 μM), Huh-7, read-out: ZIKV/Huh‐7 EC50
[24] = Severe acute respiratory syndrome coronavirus 2, preliminary screening (50, 5, 0.5 μM), Vero TMPRSS, read-out: SARS‐CoV‐2/Vero TMPRSS EC50
[25] = Huh-7, read-out: ZIKV/Huh‐7 EC50

O=C(NCCN1CCN(c2ccccc2)CC1)c1[nH]c2c(c1Cl)CCCc1ccccc1-2 [Compound 2, 3-Chloro-N-(2-(4-phenylpiperazin-1-yl)ethyl)-1,4,5,6-tetrahydrobenzo[6,7]cyclohepta[1,2-b]pyrrole-2-carboxamide]
growth inhibition (GI%) reached against cancer cell lines of the NCI-60 panel (NCI-60 cell line panel): < 60% | EC50 [1, 23]: 43.9 µM | CC50 at 48 h [2]: < 50 µM

O=C(NCCN1CCN(c2ccc(Cl)cc2)CC1)c1[nH]c2c(c1Cl)CCCc1ccccc1-2 [Compound 3]
growth inhibition (GI%) reached against cancer cell lines of the NCI-60 panel (NCI-60 cell line panel): < 60% | CC50 at 24 h (in vitro [3]): 143 µM | EC50 [1, 23]: 3.24 µM | CC50 at 48 h [2]: 62.6 µM

O=C(NCCN1CCN(c2ccccc2Cl)CC1)c1[nH]c2c(c1Cl)CCCc1ccccc1-2 [Compound 4]
CC50 (in vitro [4]): 14.7 µM | inhibition at 10 µM [5]: 60% | EC50 [6, 24]: 42.5 µM | CC50 at 24 h (in vitro [3]): 57.9 µM | EC50 [1, 25]: 4.39 µM | CC50 at 48 h [2]: 59.9 µM

COc1cccc(N2CCN(CCNC(=O)c3[nH]c4c(c3Cl)CCCc3ccccc3-4)CC2)c1 [Compound 6]
CC50 (in vitro [4]): 66 µM | inhibition at 10 µM [7]: 64% | CC50 at 24 h (in vitro [3]): 121 µM | EC50 [1, 25]: 3.24 µM | CC50 at 48 h [2]: 53.5 µM

CCOc1ccccc1N1CCN(CCNC(=O)c2[nH]c3c(c2Cl)CCCc2ccccc2-3)CC1 [Compound 7]
inhibition at 10 µM [8]: 82.6% | CC50 (in vitro [4]): 5.6 µM | inhibition at 10 µM [9]: < 60% | inhibition at 10 µM [10]: 63.4% | inhibition at 10 µM [11]: 88.8% | inhibition at 10 µM [12]: 60.8% | inhibition at 10 µM [13]: < 60% | inhibition at 10 µM [14]: 77.7% | inhibition at 10 µM [15]: < 60% | inhibition at 10 µM [16]: < 60% | inhibition at 10 µM [17]: 66.5% | inhibition at 10 µM (SR (leukemia cell line)): 70% | inhibition at 10 µM [18]: 72.7% | inhibition at 10 µM [19]: 82.1% | inhibition at 10 µM (M14 (melanoma cell line)): 88.6% | inhibition at 10 µM [20]: < 60% | inhibition at 10 µM [7]: 76.1% | EC50 [6, 24]: 37.3 µM | CC50 at 24 h (in vitro [3]): 38.5 µM | EC50 [1, 25]: 3.82 µM | CC50 at 48 h [2]: 50.7 µM

N#Cc1ccccc1N1CCN(CCNC(=O)c2[nH]c3c(c2Cl)CCCc2ccccc2-3)CC1 [Compound 8, 3-Chloro-N-(2-(4-(2-cyanophenyl)piperazin-1-yl)ethyl)-1,4,5,6-tetrahydrobenzo[6,7]cyclohepta[1,2-b]pyrrole-2-carboxamide]
inhibition at 10 µM [8]: 62.4% | CC50 (in vitro [4]): 119 µM | inhibition at 10 µM [14]: 75.3% | EC50 [6, 24]: 58.4 µM | CC50 at 24 h (in vitro [3]): 67.5 µM | EC50 [1, 23]: 2.87 µM | CC50 at 48 h [2]: 50.6 µM

O=C(NCCN1CCN(c2ccc(Cl)c(Cl)c2)CC1)c1[nH]c2c(c1Cl)CCCc1ccccc1-2 [Compound 9]
growth inhibition (GI%) reached against cancer cell lines of the NCI-60 panel (NCI-60 cell line panel): < 60% | CC50 at 24 h (in vitro [3]): 67.7 µM | EC50 [1, 23]: 3.24 µM | CC50 at 48 h [2]: 65.5 µM

COc1cccc(N2CCN(CCNC(=O)c3c(Cl)[nH]c4c3CCCc3ccccc3-4)CC2)c1 [Compound 16]
inhibition at 10 µM [8]: 77.6% | CC50 (in vitro [4]): 42.9 µM | inhibition at 10 µM [9]: < 60% | inhibition at 10 µM [10]: 60% | inhibition at 10 µM [11]: < 60% | inhibition at 10 µM [13]: < 60% | inhibition at 10 µM [14]: 88.6% | inhibition at 10 µM [15]: < 60% | inhibition at 10 µM [16]: < 60% | inhibition at 10 µM [17]: < 60% | inhibition at 10 µM (SR (leukemia cell line)): 73.6% | inhibition at 10 µM [18]: 74.9% | inhibition at 10 µM [19]: < 60% | inhibition at 10 µM [5]: 73% | inhibition at 10 µM [20]: < 60% | inhibition at 10 µM [7]: < 60% | CC50 at 24 h (in vitro [3]): 50.2 µM

O=c1nc(NO)ccn1[C@@H]1O[C@H](CO)[C@@H](O)[C@H]1O [EIDD-1931, reference compound]
EC50 ([21]; IAV, MDCK cells, 48 h, full dose-response): 0.39 µM | IAV/MDCK SI ([21]; preliminary screening): < 24.15 | EC50 ([21]; read-out: IAV/MDCK EC50, preliminary screening (50, 5, 0.5 μM), MDCK): 2.07 µM | EC50 ([6]; SARS-CoV-2, VERO TMPRSS cells, 24 h, full dose-response, read-out: EC50): 0.05 µM | EC50 ([6]; preliminary screening (50, 5, 0.5 μM), Vero TMPRSS, read-out: SARS‐CoV‐2/Vero TMPRSS EC50): 0.11 µM | CC50 (MDCK cells; MDCK cells, 48 h, full dose-response): 138 µM | CC50 (MDCK cells; read-out: IAV/MDCK CC50, preliminary screening (50, 5, 0.5 μM), MDCK): < 50 µM | CC50 (Vero TMPRSS cells; VERO TMPRSS cells, 24 h, full dose-response): 22.2 µM | CC50 (Vero TMPRSS cells; read-out: SARS‐CoV‐2/Vero TMPRSS CC50, preliminary screening (50, 5, 0.5 μM), Vero TMPRSS): 13.4 µM

CC(C)OC(=O)[C@H](C)N[P@](=O)(OC[C@H]1O[C@@H](n2ccc(=O)[nH]c2=O)[C@](C)(F)[C@@H]1O)Oc1ccccc1 [sofosbuvir, reference compound]
CC50 (in vitro [22]): 262 µM | selectivity index (SI) ([1]; ZIKV, Huh-7 cells, CC50/EC50): 178.32 | EC50 ([1]; ZIKV, Huh-7 cells, 48 h, full dose-response, read-out: EC50): 1.47 µM | EC50 [1, 23]: 2.07 µM | CC50 at 48 h [2]: 300 µM

Reference: publication PMC12566046, “Arylpiperazinyl-Benzocycloheptapyrrole-Carboxamides Endowed with Dual Anticancer and Antiviral Activities” (Molecules, 2025)
